Counter-ions that a name gives are not always drawn. Numbered stars: 1 amine (or outer) side, 2 acyl side, 3 side chain; on linkers, the order of the positions; unused ones are H or OH. Bridge positions count the residues as written; N and C are the ends. Square brackets hold non-standard residues; d marks the D form. Peptide text beside a SMILES is read from it. I, II: the chains in the order shown. Actinocin(9to1) = Cc1c2oc3c(C)ccc(C(=O)[*:1])c3nc-2c(C(=O)[*:2])c(N)c1=O; NMeV = CN[C@H](C(=O)O)C(C)C; Sar = CNCC(=O)O
Tests used:
SARS-CoV-2 [1] = conditions: for % Inh. (% Inhibition of SARS-CoV-2): 10 µM
SARS-CoV-2 [2] = assay: microbe, parasite or virus in culture; conditions: Severe acute respiratory syndrome coronavirus 2, Caco-2, 48 h, read-out: % Inh. (% Inhibition of SARS-CoV-2)

Molecule	% Inh. (% Inhibition of SARS-CoV-2) (SARS-CoV-2 [1])	inhibition at 10 µM (SARS-CoV-2 [2])	other results
COc1ccc2[nH]c3c(-c4cccc5ccccc45)nccc3c2c1 [SP-141]	68.6%	–	–
c1cncc(CN2CCC(n3ncc4c(N5CCOCC5)nc(-c5ccc6[nH]ccc6c5)nc43)CC2)c1 [WAY-600]	99.1%	–	–
I-BET151 (GSK1210151A)	56.0%	–	–
Cc1cccc(CC(=O)N2CCc3c2ccc(-c2cn(C)c4ncnc(N)c24)c3F)n1 [GSK2656157]	95.0%	–	–
Cc1cc(/C=C2\SC(=O)N(c3ccccc3)C2=O)c(C)n1-c1cccnc1 [iCRT-14]	82.5%	–	–
Nc1[nH]nc2nnc(-c3c(-c4ccccc4)nn4ccccc34)cc12 [FR-180204]	58.8%	–	–
Nc1nc(OCC2CCCCC2)c2[nH]cnc2n1 [NU-2058]	51.9%	–	–
NC(=O)N/N=C/c1ccc(Oc2ccc(F)cc2)cc1 [co-102862]	55.2%	–	–
COc1ccc(C[C@H]2NC[C@H](O)[C@H]2OC(C)=O)cc1 [anisomycin]	88.1%	–	–
Cc1cc(=O)oc2c(C=O)c(O)ccc12 [4-mu-8C]	106.2%	–	–
CC[C@H](C)[C@@H]([C@@H](CC(=O)N1CCC[C@H]1[C@H](OC)[C@@H](C)C(=O)N[C@@H](Cc1ccccc1)c1nccs1)OC)N(C)C(=O)[C@@H](NC(=O)[C@H](C(C)C)N(C)C)C(C)C [Dolastin-10]	64.3%	–	–
C=C[C@@]1(C)CC(=O)[C@]2(O)[C@@]3(C)[C@@H](O)CCC(C)(C)[C@@H]3[C@H](OC(=O)CCN(C)C)[C@H](OC(C)=O)[C@@]2(C)O1 [colforsin-daproate]	80.3%	–	–
CCOC(=O)N1CCC(=C2c3ccc(Cl)cc3CCc3cccnc32)CC1 [LORATADINE]	–	–	% Inh (% inhibition of virus infection) (SARS-CoV-2 [1]; comparative experiments, Examples 1 and 2): 91.4%
O=C(Nc1ccccc1)N1CCC(Cc2cnc3ccccc3c2)CC1 [PF-750]	85.2%	–	–
Cc1c(NC(=O)OC[C@@H]2COCCN2)cn2ncnc(Nc3ccc4c(cnn4Cc4cccc(F)c4)c3)c12 [BMS-599626]	76.4%	–	–
hemin	62.9%	–	–
CNc1ncc2cc(-c3cc(NC(=O)NCCC(C)(C)C)c(F)cc3C)c(C)nc2n1 [LY3009120]	101.6%	–	–
c1ccc(C(NCCNC(c2ccccc2)c2ccccc2)c2ccccc2)cc1 [AMN-082]	71.9%	–	–
CCN(CC)CCCCNc1ncc2cc(-c3c(Cl)cccc3Cl)c(NC(=O)NC(C)(C)C)nc2n1 [PD-161570]	108.1%	–	–
CCN1CCN(Cc2ccc(C(=O)Nc3ccc(C)c(Oc4ccc5c(c4)CC(=O)N5)c3)cc2C(F)(F)F)CC1 [DDR1-IN-1]	77.6%	–	–
COc1ccc(CNC(=O)Nc2ncc([N+](=O)[O-])s2)cc1 [AR-A014418]	82.3%	–	–
COC(=O)Nc1ccc(-c2nc(N3CCOCC3)c3cnn(C4CCN(C(=O)OC)CC4)c3n2)cc1 [WYE-354]	89.9%	–	–

Molecule	% Inh. (% Inhibition of SARS-CoV-2) (SARS-CoV-2 [1])	inhibition at 10 µM (SARS-CoV-2 [2])	other results
NI-57	78.3%	–	–
COc1cc2nc(C3CC3)nc(N3CCN(c4ccccc4OC)CC3)c2cc1OC [ML314]	87.7%	–	–
CC(C)C(C(=O)Nc1nccs1)c1ccc(Cl)cc1 (stereo not drawn) [4-CMTB]	87.1%	–	–
CNS(=O)(=O)Nc1nccc(Cc2c(C)c3ccc(Oc4ncccn4)cc3oc2=O)c1F [RO5126766 (CH5126766)]	102.6%	–	IC50 (SARS-CoV-2 [1]): 5.36 µM; pIC50 (SARS-CoV-2 [1]): 5.27
COc1ccc(S(=O)(=O)N(CCO)c2ccccc2CN(C)C/C=C/c2ccc(Cl)cc2)cc1 [KN-93]	88.4%	–	–
Cc1[nH]nc2ccc(-c3cncc(OC[C@@H](N)Cc4ccccc4)c3)cc12 [A-674563]	53.3%	–	–
Cc1ccnc(NC(=O)C(C)c2cccc(C(=O)c3ccccc3)c2)c1 (stereo not drawn) [piketoprofen]	72.4%	–	–
CN1C/C=C/CCOc2cccc(c2)-c2ccnc(n2)Nc2cccc(c2)C1 [SB1317]	56.5%	–	–
CC(C)c1c2cc(-c3ccnc(NC4CCC(NC5CCOCC5)CC4)n3)ccc2nn1C (stereo not drawn) [LY2857785]	89.1%	–	–
CC(C)NC(=O)c1ccc(C#Cc2ccncc2)cn1 [LSN-2463359]	74.9%	–	–
CC(C)(NS(=O)(=O)c1ccc(Oc2ccc(F)cc2)cc1)C(=O)NO [CP-471474]	86.9%	–	–
COc1cc2c(cc1OC)CN(C(=O)[C@@H](NCc1ccncc1)C(C)(C)C)CC2 [TCS-OX2-29]	52.7%	–	–
COCCN1CCN(Cc2ccc(-c3n[nH]c4c3C(=O)c3c(NC(=O)NN5CCOCC5)cccc3-4)cc2)CC1 [RGB-286638 (free base)]	70.2%	–	–
C[C@H](NC(=O)c1sccc1OCc1ccc(Cl)cc1)c1ccccc1 [AS-1949490]	103.1%	–	–
Cn1c(Nc2ccc(C(F)(F)F)cc2)nc2cc(Oc3ccnc(-c4ncc(C(F)(F)F)[nH]4)c3)ccc21 [RAF265 (CHIR-265)]	93.2%	–	–
Cc1sc2c(c1C)C(c1ccc(Cl)cc1)=N[C@@H](CC(=O)Nc1ccc(OCCOCCOCCOCCNc3cccc4c3C(=O)N(C3CCC(=O)NC3=O)C4=O)cc1)c1nnc(C)n1-2 (stereo partly drawn) [ARV-825]	52.8%	–	–
COCc1c(-c2ccc(NC(=O)Nc3cc(C(F)(F)F)ccc3F)c(F)c2)c2c(N)ncnn2c1CN1CCOCC1 [ACTB-1003]	97.7%	–	–
Cc1ncc(-c2ccnc(Nc3ccc(S(C)(=O)=O)cc3)n2)n1C(C)C [AZD5438]	67.2%	–	–
CNc1cc2c(Nc3cccc(Br)c3)ncnc2cn1 [PD-158780]	98.3%	–	–
Lasofoxifene (Tartrate)	54.3%	–	–
GSK9027	64.1%	–	–
CN(C)C(=O)c1ccc(S(=O)(=O)c2ccc(NC(=O)[C@@](C)(O)C(F)(F)F)c(Cl)c2)cc1 [AZD7545]	82.4%	–	–

Molecule	% Inh. (% Inhibition of SARS-CoV-2) (SARS-CoV-2 [1])	inhibition at 10 µM (SARS-CoV-2 [2])	other results
COc1ccc(CCCOC(Cn2ccnc2)c2ccc(OC)cc2)cc1 (stereo not drawn) [SKF-96365]	–	70.3%	–
c1ccc(-c2ccc(C(c3ccccc3)n3ccnc3)cc2)cc1 (stereo not drawn) [BIFONAZOLE]	–	70.8%	–
O=C(O)c1ccc(OCCn2ccnc2)cc1 [Dazoxiben]	–	56%	–
C[C@@H]([C@@H](O)c1ccc(O)cc1)N1CCC(O)(c2ccccc2)CC1 [CP 101606]	–	54.3%	–
COc1ccc(-n2nc(C(N)=O)c3c2C(=O)N(c2ccc(N4CCCCC4=O)cc2)CC3)cc1 [APIXABAN]	–	78%	–
CC1(C)S[C@@H]2[C@H](N3C(=O)[C@@H](c4ccccc4)NC3(C)C)C(=O)N2[C@H]1C(=O)O [HETACILLIN POTASSIUM]	–	67.1%	–
C[C@H]1O[C@@H](O[C@H]2[C@@H](O)C[C@H](O[C@H]3[C@@H](O)C[C@H](O[C@H]4CC[C@@]5(C)[C@H](CC[C@@H]6[C@@H]5C[C@@H](O)[C@]5(C)[C@@H](C7=CC(=O)OC7)CC[C@]65O)C4)O[C@@H]3C)O[C@@H]2C)C[C@H](O)[C@@H]1O [DIGOXIN]	–	70.6%	–
CCCCNc1cc(C(=O)O)cc(S(N)(=O)=O)c1Oc1ccccc1 [BUMETANIDE]	–	87.5%	–
Clc1ccccc1C(c1ccccc1)(c1ccccc1)n1ccnc1 [CLOTRIMAZOLE]	–	81.7%	–
Cc1c2oc3c(C)ccc(C(=O)N[C@@H]4C(=O)N[C@H](C(C)C)C(=O)N5CCC[C@H]5C(=O)N(C)CC(=O)N(C)[C@@H](C(C)C)C(=O)O[C@@H]4C)c3nc-2c(C(=O)N[C@@H]2C(=O)N[C@H](C(C)C)C(=O)N3CCC[C@H]3C(=O)N(C)CC(=O)N(C)[C@@H](C(C)C)C(=O)O[C@@H]2C)c(N)c1=O [DACTINOMYCIN] (I: T[dV]P[Sar][NMeV] / II: T[dV]P[Sar][NMeV]; ester I:1-I:C, II:1-II:C; linker I:N-II:N via Actinocin(9to1))	–	74.6%	–
N=C(N)c1ccc(OCCCCCOc2ccc(C(=N)N)cc2)cc1 [PENTAMIDINE ISETHIONATE]	–	54.6%	–
Cc1ccc(Oc2ccccc2-c2csc(N=C3NCCCN3)n2)c(C)c1 [Abafungin]	–	92.9%	–
O=C(O)CCCO [SODIUM OXYBATE]	–	57.3%	–
C=C[C@H]1CN2CC[C@H]1C[C@H]2[C@H](OC(=O)OCC)c1ccnc2ccc(OC)cc12 [QUININE ETHYL CARBONATE]	–	59.1%	–
COc1ccc(CCNCC(O)COc2cccc(C)c2)cc1OC (stereo not drawn) [Bevantolol HCl]	–	77.1%	–
CNC(=O)c1cc(Oc2ccc(NC(=O)Nc3cc(C(C)(C)C)nn3-c3ccc4ncccc4c3)c(F)c2)ccn1 [DCC-2036 (Rebastinib), Rebastinib]	–	70%	–
COc1ccccc1N1CCN(CC(O)COc2cccc3ccccc23)CC1 (stereo not drawn) [NAFTOPIDIL]	–	90.6%	–
Cc1c(CN2CCN(C(=O)[C@H](C)O)CC2)sc2c(N3CCOCC3)nc(-c3cnc(N)nc3)nc12 [Apitolisib (GDC-0980, RG7422), Apitolisib]	–	102%	–
COc1ccc(NC(=O)c2ccc(-c3ccc(-c4noc(C)n4)cc3C)cc2)cc1N1CCN(C)CC1 [GR-127935]	–	53.7%	–
COc1c(O[C@@H]2O[C@H](CO)[C@@H](O)[C@H](O)[C@H]2O)cc2c(c1OC)-c1ccc(SC)c(=O)cc1[C@@H](NC(C)=O)CC2 [thiocolchicoside]	–	54.2%	–

— patent US20230126310A1 (priority 2020, published 2023)
